The text below walks through data of ChEMBL document CHEMBL1201862, “PubChem BioAssay data set” (2004).

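Exposure lasted 48 hours, with cells grown in 96-well plates and compounds tested at five concentrations. At the GI50, growth is halved.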 Activity calls are given as the source filed them. Cut-off read from the data, not from the text of the source: active = GI50 up to about 1.1 µM and inactive = higher. Some results are limits rather than exact numbers.

Among the test systems are SK-MEL-5; UACC-257; NCI-H23; HT-29; COLO 205; RXF 393; SW-620; CAKI-1; SK-MEL-2; A498; M14; Malme-3M; OVCAR-4; OVCAR-5; U-251; SK-OV-3; NCI-H460; SNB-75; SK-MEL-28; MOLT-4.
Experiment in all cases: NCI tumour cell line growth inhibition, 48 h

Consider `CC(=O)Oc1ccccc1C(=O)C1c2cccc(O)c2C(=O)c2c(O)cccc21`, for which the GI50 was 1.05 µM (active) in the assay with SK-MEL-5; 1.62 µM (inactive) in the assay with UACC-257; 1.09 µM (active) in the assay on NCI-H23; 2.59 µM (inactive) in the assay with HT-29; 0.705 µM (active) in the assay on COLO 205; 0.423 µM (active) in the assay on RXF 393. The GI50 in the assay with SW-620 was 0.445 µM (active); with CAKI-1 it was 1.95 µM (inactive); in the assay with SK-MEL-2 it was 1.19 µM (inactive); with A498, 1.8 µM (inactive); in the assay with M14, 1.84 µM (inactive); in the assay with Malme-3M, 1.95 µM (inactive). Further, the GI50 was 0.995 µM (active) in the assay with OVCAR-4; 2.58 µM (inactive) in the assay on OVCAR-5; 0.494 µM (active) in the assay on U-251; 0.543 µM (active) in the assay on SK-OV-3; 0.433 µM (active) with NCI-H460; 0.695 µM (active) in the assay on SNB-75. Also, the GI50 is 1.64 µM (inactive) in the assay with SK-MEL-28 and 1.46 µM (inactive) in the assay on MOLT-4.
For `COc1c(O)c(C=O)c2c(O)c(-c3c(C)cc4c(C(C)C)c(OC)c(O)c(C=O)c4c3O)c(C)cc2c1C(C)C` [6,6'-METHOXYGOSSYPOL], the GI50 in the assay with SK-MEL-5 is 9.23 µM (inactive); in the assay with UACC-257, 10.9 µM (inactive); in the assay on NCI-H23, 3.61 µM (inactive); in the assay with HT-29, 4.13 µM (inactive); with COLO 205, 1.89 µM (inactive); in the assay on RXF 393 it was 2.52 µM (inactive). Further, the GI50 is 5.33 µM (inactive) in the assay on SW-620; 6.08 µM (inactive) with CAKI-1; 4.45 µM (inactive) in the assay on SK-MEL-2; 11.4 µM (inactive) in the assay on A498; 9.86 µM (inactive) with M14; 5.75 µM (inactive) with Malme-3M. Further, the GI50 with OVCAR-4 is 3.86 µM (inactive); in the assay with OVCAR-5, 7.08 µM (inactive); in the assay on U-251, 3.2 µM (inactive); in the assay with SK-OV-3, 4.19 µM (inactive); in the assay with NCI-H460, 4.72 µM (inactive); in the assay on SNB-75, 2.4 µM (inactive). The GI50 with SK-MEL-28 is 6.61 µM (inactive); in the assay with MOLT-4 it was 7.53 µM (inactive).
On to `COc1ccc(C(O)CNC(=O)c2ccccc2)cc1` (stereo not given), for which the GI50 in the assay on SK-MEL-5, in the assay on UACC-257, in the assay with NCI-H23, in the assay with HT-29, in the assay on COLO 205 and in the assay with RXF 393 was > 100 µM (inactive) in each case. The GI50 in the assay with SW-620, in the assay on CAKI-1, in the assay with SK-MEL-2, in the assay with A498, in the assay on M14 and with Malme-3M was > 100 µM (inactive) throughout. Besides, the GI50 in the assay with OVCAR-4, in the assay on OVCAR-5, with U-251, with SK-OV-3, in the assay on NCI-H460 and in the assay with SNB-75 was > 100 µM (inactive) each time. Also, the GI50 in the assay with SK-MEL-28 and in the assay with MOLT-4 was > 100 µM (inactive) in each case.
`O=C(CC1Sc2ccccc2NC1=O)Nc1ccccc1[N+](=O)[O-]` (stereo not given): the GI50 in the assay on SK-MEL-5, in the assay on UACC-257, in the assay with NCI-H23, in the assay on HT-29, in the assay with COLO 205 and with RXF 393 was > 100 µM (inactive) each time. For the same compound, the GI50 with SW-620, in the assay with CAKI-1, in the assay with SK-MEL-2, with A498, in the assay with M14 and in the assay with Malme-3M was > 100 µM (inactive) in each case. Besides, the GI50 with OVCAR-4, in the assay on OVCAR-5, in the assay on U-251, with SK-OV-3, in the assay on NCI-H460 and in the assay with SNB-75 was > 100 µM (inactive) in each case. Also, the GI50 was > 100 µM (inactive) in the assay on SK-MEL-28 and 4.33 µM (inactive) in the assay with MOLT-4.
For the compound `c1ccc(C2=NNC3c4ccccc4-c4ccccc4N3C2)cc1` (stereo not given), the GI50 with SK-MEL-5 is 15.9 µM (inactive); with UACC-257 it was 27.2 µM (inactive); in the assay with NCI-H23, 26.1 µM (inactive); in the assay with HT-29 it was 39.5 µM (inactive); in the assay on COLO 205, 18.4 µM (inactive); in the assay with RXF 393 it was 40 µM (inactive). For the same compound, the GI50 is 33.4 µM (inactive) in the assay with SW-620; 43 µM (inactive) in the assay with CAKI-1; 20.1 µM (inactive) in the assay with SK-MEL-2; 30 µM (inactive) in the assay on A498; 29.2 µM (inactive) in the assay on M14; 30.3 µM (inactive) in the assay on Malme-3M. The GI50 in the assay with OVCAR-4 was 37.9 µM (inactive); in the assay on OVCAR-5, 99.8 µM (inactive); in the assay with U-251, 26.5 µM (inactive); in the assay with SK-OV-3, 46.6 µM (inactive); in the assay with NCI-H460, 21.9 µM (inactive); in the assay on SNB-75, 21.9 µM (inactive). Moreover, the figures for the GI50 in the assay on SK-MEL-28 and in the assay with MOLT-4 were 35.6 µM (inactive) and 20 µM (inactive), respectively.
With `Clc1ccc(C2ON=C(c3ccccc3)N2C23CC4CC(CC(C4)C2)C3)c(Cl)c1` (stereo not given), the GI50 in the assay with SK-MEL-5, with UACC-257, in the assay with NCI-H23, in the assay on HT-29, with COLO 205 and in the assay on RXF 393 was > 10 µM (inactive) in each case. Moreover, the GI50 with SW-620, in the assay on CAKI-1, with SK-MEL-2, with A498, in the assay on M14 and with Malme-3M was > 10 µM (inactive) each time. In addition, the GI50 in the assay on OVCAR-4, with OVCAR-5, with U-251, with SK-OV-3, in the assay on NCI-H460 and in the assay on SNB-75 was > 10 µM (inactive) throughout. In addition, the GI50 in the assay on SK-MEL-28 and in the assay with MOLT-4 was > 10 µM (inactive) in each case.
On to `CCN(CC)Cc1cc(Nc2c3ccccc3nc3c2[nH]c2ccccc23)ccc1O`, for which the GI50 is 1.89 µM (inactive) in the assay with SK-MEL-5; 2.44 µM (inactive) in the assay with UACC-257; 1.43 µM (inactive) in the assay with NCI-H23; 0.52 µM (active) with HT-29; 1.02 µM (active) in the assay on COLO 205; 1.31 µM (inactive) with RXF 393. Also, the GI50 is 0.912 µM (active) in the assay on SW-620; 1.46 µM (inactive) in the assay on CAKI-1; 1.34 µM (inactive) in the assay on SK-MEL-2; 1.61 µM (inactive) in the assay with A498; 1.7 µM (inactive) in the assay with M14; 1.9 µM (inactive) with Malme-3M. Also, the GI50 is 1.39 µM (inactive) in the assay on OVCAR-4; 1.22 µM (inactive) in the assay with OVCAR-5; 1.17 µM (inactive) in the assay on U-251; 2.11 µM (inactive) in the assay on SK-OV-3; 0.75 µM (active) with NCI-H460; 1.59 µM (inactive) in the assay on SNB-75. Moreover, the GI50 with SK-MEL-28 is 1.8 µM (inactive); in the assay on MOLT-4, 0.508 µM (active).
